Test results as given in patent publication US20200214324A1, “Masking Bitter Flavors” (Board of Supervisors of Louisiana State University and …, priority 2009, published 2020).
Entries after “also recorded” stand apart in the source; their conditions may differ.

Assays:
[1] = tasting of aqueous potassium chloride solutions with or without mogroside; type: in vivo
Description: When tasted by volunteers, the solution without mogroside was bitter, unpleasant, and generally considered undrinkable.
(§1) Additional examples of the use of Mogroside V to alter the flavors of various consumables, and the experimental results obtained, are summarized in Table I: […]

[2] = tasting of glycerine-water mixtures with mogroside; type: in vivo
Description: Glycerine causes an astringent or biting taste in the back of the mouth when added to foods at levels over a few percent by weight. […] Glycerine may then be used as a humectant in intermediate-moisture human and pet foods. Adding a preferred concentration of about 200 ppm mogroside reduces or even eliminates the glycerine “bite.” Foods such as beans, pasta, rice, and bulgur can be pre-cooked in aqueous solutions of glycerine (˜2 to ˜30% by weight), containing ˜25 to ˜500 ppm mogroside. The products are then optionally dried to a water activity (aw) less than ˜0.7. The resulting materials can be rehydrated quickly with no bitter flavor.
as §1

[3] = tasting of acai products with mogroside; type: in vivo
Description: Acai berries have a bitter off-flavor, which has limited the use of acai as a natural anti-oxidant. Prior methods for minimizing the bitterness of acai have included diluting the juice, adding sugar, or mixing acai with other, sweeter berries. […] The flat, tannic notes of acai were masked, and the puree flavor changed to a semi-sweet berry flavor with large, juicy top notes. The preferred concentration range was ˜200 to ˜500 ppm mogroside. […] Possible uses include any products that contain acai berry ingredients, including for example raw berries, purees, powders, flavorings, juices, ice cream (with or without glycerin), fruit fillings, smoothies, yogurts, teas, coffee, beer, salad dressing, marinades, candies, wines, liquors, other alcoholic beverages, and the like.
as §1

[4] = tasting of Hominex amino acid beverage with mogroside; type: in vivo; conditions: for off-flavors, chalkiness, pastiness and bitterness compared to the unmodified beverage / mogroside-associated off flavor: Hominex suspension
Experimental: For example, we added mogroside to a commercial amino acid beverage (Hominex™) at a rate of 200-1000 ppm, preferably 300-800 ppm. The Hominex™ suspension, which contains free amino acids, vitamins, minerals, and other nutrients, was prepared in accordance with the manufacturer's directions. Mogroside was then added to the dissolved medical food drink. The suspension was allowed to equilibrate for about one minute before tasting. Compared to the unmodified beverage, there was a marked reduction in the off-flavors, the chalkiness, the pastiness, and the bitterness. […] Unless additional flavors are also added, mogroside's own off-flavor can limit its use at higher concentrations. Conversely, at least for the samples we have tested to date, there may be no compelling reason to use mogroside at such higher levels anyway. Using mogroside in free amino acid-based foods can reduce or eliminate the bitter and unpleasant flavors, making them much more palatable, and enhancing patient compliance. Similar results are expected for improving the palatability of other medical foods.
as §1

[5] = blind tasting of poached beef liver puree; type: in vivo
Experimental: In another experiment, mogroside was added to a beef liver puree, and the puree was poached to an internal temperature of 74° C. A control puree with no mogroside was identically cooked. Six individuals tasted the samples blind and could easily differentiate them.

[6] = tasting of coconut water with mogroside; type: in vivo; conditions: plain + 200 ppm mogroside (plain: bitter)
Description: as §1

[7] = tasting of cocoa powder with mogroside; type: in vivo; conditions: plain + 200 ppm mogroside (plain: bitter)
Description: as §1

[8] = tasting of pomegranate juice with mogroside; type: in vivo; conditions: plain + 200 ppm mogroside (plain: tannic)
Description: as §1

[9] = tasting of lima beans with mogroside in oil; type: in vivo; conditions: plain + 100 ppm mogroside in oil (plain: beany)
Description: as §1

[10] = tasting of Powerade sports drink with KCl and mogroside; type: in vivo
Description: as §1

[11] = tasting of vodka with mogroside; type: in vivo; conditions: plain + 200 ppm mogroside (plain: sharp bite)
Description: as §1

[12] = tasting of soy milk with mogroside; type: in vivo; conditions: plain + 200 ppm mogroside (plain: beany)
Description: as §1

[13] = tasting of Robusta coffee with chicory with mogroside; type: in vivo; conditions: 2 g/250 g water, plain + 200 ppm mogroside
Description: as §1

[14] = difference and preference testing of a cocoa powder drink with 400 ppm mogroside; type: in vivo
Description: as §1

[15] = tasting of Ruby Red grapefruit with mogroside; type: in vivo
Description: as §1

[16] = solubility of mogroside in water versus oil; type: physicochemical
Description: Addition of mogroside will also help improve the flavor of other organ meats and products containing organ meats. Other methods of cooking may also be used. The concentration or amount of mogroside may vary, depending on the method of cooking used. […] By contrast, cooking foods in water may require that higher concentrations of mogroside be used than when cooking in oil, because the mogroside is soluble in the cooking liquid. Higher concentrations of mogroside may be needed to promote osmosis or diffusion into the food. Temperature and cooking time will also have an effect on uptake of mogroside: In general, more mogroside will be taken up by food when the cooking temperature is higher, and also when the cooking time is longer.

[17] = tasting of Hominex amino acid beverage with mogroside; type: in vivo; conditions: 9.3 g Hominex/100 ml water + 100 ppm mogroside (plain: bitter, chalky, floury)
[18] = cocoa powder drink + 400 ppm mogroside vs control, number of tasters

For mogroside, the perceived taste ([1]; 2% aqueous potassium chloride with 250 ppm mogroside, tasted by volunteers, without mogroside bitter, undrinkable) was “slightly salty, otherwise bland, and far more drinkable”, the flavor ([1]; KCl 2% + 250 ppm mogroside (2% alone: bitter)) was “salty” and the flavor ([1]; KCl 2.5% + 250 ppm mogroside) was “salty”. The flavor ([1]; KCl 3.0% + 250 ppm mogroside) was “slight bitterness”, the flavor ([2]; 50% glycerine solution + mogroside (without: biting)) was “sweet” and the “effect on astringent or biting taste of glycerine” value ([2]; mogroside added to glycerine-water mixtures) was “greatly reduces or even eliminates the astringent or biting taste”. For the same substance, the flavor ([3]; Acai puree 12% Brix, plain + 500 ppm mogroside (plain: tannic)) was “berry-semi-sweet/fruity”, the flavor ([3]; Acai, 100 ppm mogroside (control: bitter, tannic)) was “bland, slight tannic” and the flavor ([3]; Acai, 200 ppm mogroside) was “fruity, berry semi-sweet”. For the same substance, the flavor ([3]; Acai, 300 ppm mogroside) was “tannic, little flavor at all”, the flavor ([3]; Acai, 400 ppm mogroside) was “jammy, slight tannic” and the flavor ([3]; Acai, 500 ppm mogroside) was “jammy, no tannin”. The flavor ([3]; Acai, 600 ppm mogroside) was “jammy, sweet after taste;; also recorded: high intensity flavor”, the flavor ([3]; Acai, 700 ppm mogroside) was “sweet” and the flavor ([3]; Acai, 800 ppm mogroside) was “too sweet”. For the same substance, the flavor ([3]; acai products, 800 ppm mogroside) was “strong, high-intensity sweet flavor”, the “effect on bitterness and off-flavor of acai” value ([3]; mogroside added to acai berry puree) was “masked the bitterness and off-flavor notes” and the flavor ([4]; 9.3 g Hominex/100 ml water + 200 ppm mogroside) was “much less so, but still; also recorded: bitter & slightly floury”. For the same substance, the flavor ([4]; 9.3 g Hominex/100 ml water + 300 ppm mogroside) was “drinkable”, the flavor ([4]; 9.3 g Hominex/100 ml water + 400 ppm mogroside) was “tasteless” and the flavor ([4]; 9.3 g Hominex/100 ml water + 500 ppm mogroside) was “tasteless”. The flavor ([4]; 9.3 g Hominex/100 ml water + 600 ppm mogroside) was “slight strange taste”, the flavor ([4]; 9.3 g Hominex/100 ml water + 700 ppm mogroside) was “hint of off-note” and the flavor ([4]; 9.3 g Hominex/100 ml water + 800 ppm mogroside) was “off-flavored”. The flavor ([4]; 10 g Hominex/230 g water + 200 ppm mogroside (without: bad aftertaste)) was “drinkable”, the “off-flavors, chalkiness, pastiness and bitterness compared to the unmodified beverage” value ([4]; 200 ppm mogroside) was “reduced” and the “off-flavors, chalkiness, pastiness and bitterness compared to the unmodified beverage” value ([4]; 300 ppm mogroside) was “essentially eliminated”. The mogroside-associated off flavor ([4]; 800 ppm mogroside) was “pronounced”, the mogroside-associated off flavor ([4]; around 600 ppm mogroside) was “began to develop” and the “taste description by six blind tasters” value ([5]; 150-250 ppm, puree poached to 74° C., control livery, organy, bloody) was “slightly sweet, “bologna-like,” and “bland.””. The “level preferred by the majority of testers” value ([5]; in vivo) was 200 ppm, the preference of testers ([5]; samples with mogroside vs control puree, six individuals) was “All testers preferred the samples with mogroside” and the flavor [6] was “sweet”. For the same substance, the flavor [7] was “chocolate”, the flavor [8] was “sweet” and the flavor [9] was “semi-sweet; no; also recorded: beaniness”. For the same substance, the flavor ([10]; plain + 2% KCl + mogroside (without mogroside: bitter)) was “salty”, the flavor ([10]; plain + 3% KCl + mogroside (without mogroside: bitter)) was “slightly bitter, salty” and the flavor [11] was “tasteless”. For the same substance, the flavor [12] was “decreased beany flavor”, the flavor [13] was “sweet coffee flavor” and the “Difference testing: No” value [14, 18] was 0. The “Difference testing: Yes” value [14, 18] was 6, the “Preference testing: Control” value ([14]; number preferring control without mogroside) was 1 and the “Preference testing: Test” value ([14]; number preferring test drink with 400 ppm mogroside) was 6. The flavor ([15]; plain + 100 ppm mogroside (plain: mild sour, mild sweet, very mild aftermath)) was “no difference from plain”, the flavor ([15]; plain + 200 ppm mogroside) was “mild sour, sweet, high” and the flavor ([15]; plain + 300 ppm mogroside) was “sweet, hint of sour,; also recorded: aftertaste of bitterness”. The flavor ([15]; plain + 400 ppm mogroside) was “very sweet, no sour,; also recorded: hint of bitterness”, the flavor ([15]; plain + 600 ppm mogroside) was “too sweet” and the “solubility in water compared with oil” value [16] was “much higher than that in oil”. For the same substance, the flavor [17] was “less so, but still floury”.
